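Tested at 5 concentrations; 48 h exposure; 96-well plates; endpoints linearly interpolated, else capped at highest concentration. TGI denotes the concentration required for complete inhibition of growth.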
Key:
Experiment in all cases: NCI-60 cell line screen, 48 h
786-0 renal = system: 786-0 renal
U251 CNS = system: U251 CNS
HT29 colon = system: HT29 colon
HS 578T breast = system: HS 578T breast
MDA-MB-231 breast = system: MDA-MB-231 breast
SK-OV-3 ovarian = system: SK-OV-3 ovarian
MCF7 breast = system: MCF7 breast
MALME-3M melanoma = system: MALME-3M melanoma
OVCAR-3 ovarian = system: OVCAR-3 ovarian
OVCAR-8 ovarian = system: OVCAR-8 ovarian
IGROV1 ovarian = system: IGROV1 ovarian
HCC-2998 colon = system: HCC-2998 colon
SF-268 CNS = system: SF-268 CNS
EKVX NSCLC = system: EKVX NSCLC
DU-145 prostate = system: DU-145 prostate
SNB-75 CNS = system: SNB-75 CNS
HCT-15 colon = system: HCT-15 colon
OVCAR-5 ovarian = system: OVCAR-5 ovarian
SN12C renal = system: SN12C renal
ACHN renal = system: ACHN renal
SNB-19 CNS = system: SNB-19 CNS
RXF 393 renal = system: RXF 393 renal
MOLT-4 leukemia = system: MOLT-4 leukemia
MDA-N = system: MDA-N
HOP-62 NSCLC = system: HOP-62 NSCLC
TK-10 renal = system: TK-10 renal
SR leukemia = system: SR leukemia
HCT-116 colon = system: HCT-116 colon
HL-60(TB) leukemia = system: HL-60(TB) leukemia
SF-539 CNS = system: SF-539 CNS
K-562 leukemia = system: K-562 leukemia
SW-620 colon = system: SW-620 colon
RPMI-8226 leukemia = system: RPMI-8226 leukemia
NCI-H23 lung = system: NCI-H23 lung
NCI-H522 lung = system: NCI-H522 lung
A549 NSCLC = system: A549 NSCLC
SK-MEL-28 melanoma = system: SK-MEL-28 melanoma
KM12 colon = system: KM12 colon
OVCAR-4 ovarian = system: OVCAR-4 ovarian
CCRF-CEM leukemia = system: CCRF-CEM leukemia
PC-3 prostate = system: PC-3 prostate
NCI-H226 lung = system: NCI-H226 lung
COLO 205 colon = system: COLO 205 colon
UACC-257 melanoma = system: UACC-257 melanoma
MDA-MB-435 = system: MDA-MB-435
LOX IMVI melanoma = system: LOX IMVI melanoma
M14 melanoma = system: M14 melanoma
UACC-62 melanoma = system: UACC-62 melanoma
SK-MEL-5 melanoma = system: SK-MEL-5 melanoma
SF-295 CNS = system: SF-295 CNS
T-47D breast = system: T-47D breast
HOP-92 NSCLC = system: HOP-92 NSCLC
NCI/ADR-RES ovarian = system: NCI/ADR-RES ovarian
CAKI-1 renal = system: CAKI-1 renal
A498 renal = system: A498 renal
NCI-H460 lung = system: NCI-H460 lung
SK-MEL-2 melanoma = system: SK-MEL-2 melanoma
UO-31 renal = system: UO-31 renal

**Q.** What does the source list for `COC(=O)c1ccc2c(c1)CC1(C2)Cc2ccc3c(c2C1)CCC3` (configuration not stated)?
**A.** TGI (786-0 renal): > 100 µM; TGI (U251 CNS): > 100 µM; TGI (HT29 colon): 55.4 µM; TGI (HS 578T breast): > 100 µM; TGI (MDA-MB-231 breast): 22.1 µM; TGI (SK-OV-3 ovarian): 51.8 µM; TGI (MCF7 breast): 81.5 µM; TGI (MALME-3M melanoma): 60.5 µM; TGI (OVCAR-3 ovarian): > 100 µM; TGI (OVCAR-8 ovarian): > 100 µM; TGI (IGROV1 ovarian): > 100 µM; TGI (HCC-2998 colon): > 100 µM; TGI (SF-268 CNS): > 100 µM; TGI (EKVX NSCLC): > 100 µM; TGI (DU-145 prostate): > 100 µM; TGI (SNB-75 CNS): > 100 µM; TGI (HCT-15 colon): > 100 µM; TGI (OVCAR-5 ovarian): > 100 µM; TGI (SN12C renal): > 100 µM; TGI (ACHN renal): > 100 µM; TGI (SNB-19 CNS): > 100 µM; TGI (RXF 393 renal): > 100 µM; TGI (MOLT-4 leukemia): 37.4 µM; TGI (MDA-N): 17.8 µM; TGI (HOP-62 NSCLC): 93 µM; TGI (TK-10 renal): > 100 µM; TGI (SR leukemia): > 100 µM; TGI (HCT-116 colon): > 100 µM; TGI (HL-60(TB) leukemia): 39.7 µM; TGI (SF-539 CNS): > 100 µM; TGI (K-562 leukemia): > 100 µM; TGI (SW-620 colon): > 100 µM; TGI (RPMI-8226 leukemia): 74.3 µM; TGI (NCI-H23 lung): > 100 µM; TGI (NCI-H522 lung): 66.8 µM; TGI (A549 NSCLC): > 100 µM; TGI (SK-MEL-28 melanoma): > 100 µM; TGI (KM12 colon): 40.9 µM; TGI (OVCAR-4 ovarian): > 100 µM; TGI (CCRF-CEM leukemia): > 100 µM; TGI (PC-3 prostate): 51.9 µM; TGI (NCI-H226 lung): > 100 µM; TGI (COLO 205 colon): 32.1 µM; TGI (UACC-257 melanoma): 53.8 µM; TGI (MDA-MB-435): 14.3 µM; TGI (LOX IMVI melanoma): 60.7 µM; TGI (M14 melanoma): 13 µM; TGI (UACC-62 melanoma): 40.6 µM; TGI (SK-MEL-5 melanoma): 33.3 µM; TGI (SF-295 CNS): 66.4 µM; TGI (T-47D breast): 69.1 µM; TGI (HOP-92 NSCLC): > 100 µM

**Q.** `Cc1ccc(N=c2oc3c(ccc4ccccc43)nc2Nc2ccc(C)cc2)cc1` was tested. Which TGI (NCI/ADR-RES ovarian) did it give?
**A.** > 100 µM

**Q.** And the TGI (786-0 renal)?
**A.** > 100 µM

**Q.** And the TGI (U251 CNS)?
**A.** > 100 µM

**Q.** And the TGI (HT29 colon)?
**A.** > 100 µM

**Q.** What about the TGI (HS 578T breast) of the same compound?
**A.** > 100 µM

**Q.** And the TGI (CAKI-1 renal)?
**A.** > 100 µM

**Q.** And the TGI (MDA-MB-231 breast)?
**A.** > 100 µM

**Q.** And the TGI (SK-OV-3 ovarian)?
**A.** > 100 µM

**Q.** What about the TGI (MALME-3M melanoma) of the same compound?
**A.** > 100 µM

**Q.** What about the TGI (OVCAR-8 ovarian) of the same compound?
**A.** > 100 µM

**Q.** What about the TGI (IGROV1 ovarian) of the same compound?
**A.** > 100 µM

**Q.** And the TGI (HCC-2998 colon)?
**A.** > 100 µM

**Q.** What about the TGI (SF-268 CNS) of the same compound?
**A.** > 100 µM

**Q.** What about the TGI (EKVX NSCLC) of the same compound?
**A.** > 100 µM

**Q.** What about the TGI (A498 renal) of the same compound?
**A.** > 100 µM

**Q.** What about the TGI (DU-145 prostate) of the same compound?
**A.** > 100 µM

**Q.** What about the TGI (SNB-75 CNS) of the same compound?
**A.** > 100 µM

**Q.** What about the TGI (HCT-15 colon) of the same compound?
**A.** > 100 µM

**Q.** And the TGI (NCI-H460 lung)?
**A.** > 100 µM

**Q.** What about the TGI (OVCAR-5 ovarian) of the same compound?
**A.** > 100 µM

**Q.** What about the TGI (SN12C renal) of the same compound?
**A.** > 100 µM

**Q.** What about the TGI (ACHN renal) of the same compound?
**A.** > 100 µM

**Q.** And the TGI (SNB-19 CNS)?
**A.** > 100 µM

**Q.** What about the TGI (RXF 393 renal) of the same compound?
**A.** > 100 µM

**Q.** And the TGI (MOLT-4 leukemia)?
**A.** > 100 µM

**Q.** And the TGI (MDA-N)?
**A.** > 100 µM

**Q.** What about the TGI (HOP-62 NSCLC) of the same compound?
**A.** > 100 µM

**Q.** What about the TGI (TK-10 renal) of the same compound?
**A.** > 100 µM

**Q.** What about the TGI (SR leukemia) of the same compound?
**A.** > 100 µM

**Q.** What about the TGI (HCT-116 colon) of the same compound?
**A.** > 100 µM

**Q.** What about the TGI (HL-60(TB) leukemia) of the same compound?
**A.** > 100 µM

**Q.** What about the TGI (SF-539 CNS) of the same compound?
**A.** > 100 µM

**Q.** And the TGI (K-562 leukemia)?
**A.** > 100 µM

**Q.** And the TGI (SW-620 colon)?
**A.** > 100 µM

**Q.** What about the TGI (RPMI-8226 leukemia) of the same compound?
**A.** > 100 µM

**Q.** What about the TGI (NCI-H23 lung) of the same compound?
**A.** > 100 µM

**Q.** What about the TGI (SK-MEL-2 melanoma) of the same compound?
**A.** > 100 µM

**Q.** And the TGI (NCI-H522 lung)?
**A.** > 100 µM

**Q.** What about the TGI (A549 NSCLC) of the same compound?
**A.** > 100 µM

**Q.** And the TGI (SK-MEL-28 melanoma)?
**A.** > 100 µM

**Q.** What about the TGI (KM12 colon) of the same compound?
**A.** > 100 µM

**Q.** And the TGI (OVCAR-4 ovarian)?
**A.** > 100 µM

**Q.** And the TGI (CCRF-CEM leukemia)?
**A.** > 100 µM

**Q.** And the TGI (PC-3 prostate)?
**A.** > 100 µM

**Q.** And the TGI (NCI-H226 lung)?
**A.** > 100 µM

**Q.** And the TGI (COLO 205 colon)?
**A.** > 100 µM

**Q.** And the TGI (UACC-257 melanoma)?
**A.** > 100 µM

**Q.** And the TGI (MDA-MB-435)?
**A.** > 100 µM

**Q.** What about the TGI (LOX IMVI melanoma) of the same compound?
**A.** > 100 µM

**Q.** And the TGI (UACC-62 melanoma)?
**A.** > 100 µM

**Q.** What about the TGI (SK-MEL-5 melanoma) of the same compound?
**A.** > 100 µM

**Q.** And the TGI (SF-295 CNS)?
**A.** > 100 µM

**Q.** And the TGI (T-47D breast)?
**A.** > 100 µM

**Q.** And the TGI (HOP-92 NSCLC)?
**A.** > 100 µM

**Q.** What about the TGI (UO-31 renal) of the same compound?
**A.** > 100 µM

Source: PubChem BioAssay (NCI)
